Reference: the NIST ThermoML archive (doi:10.1016/j.fluid.2007.05.026)
± gives the expanded uncertainty stated by the source.

Experiments:
[1] = for mass density: 101.33 kPa, Vibrating tube method; for Normal melting temperature: visual observation
[2] = refractive index (Na D-line) (dimensionless); conditions: 101.33 kPa, Liquid, Standard Abbe refractometry

| mass density ([1]; 298.15 K, Crystal) | Normal melting temperature ([1]; Crystal) | mass density ([1]; 314.45 K, Liquid) | refractive index ([2]; 314.45 K) | Compound | mass density ([1]; 298.15 K, Liquid) | Normal boiling temperature ([1]; Liquid, Manometric method) | refractive index ([2]; 298.15 K) |
| --- | --- | --- | --- | --- | --- | --- | --- |
| 1338 ± 2 kg/m3 | 171.40 ± 0.5 °C |  |  | Oc1ccc(O)cc1 [1,4-benzenediol] |  |  |  |
|  |  |  |  | CC(=O)CC(C)C [4-methylpentan-2-one] | 799.8 ± 0.3 kg/m3 | 117.60 ± 0.1 °C | 1.396 ± 0.0008 |
|  | 41.30 ± 0.5 °C | 1061 ± 1 kg/m3 | 1.5425 ± 0.0007 | Oc1ccccc1 [phenol] |  |  |  |
